Details: Liquid; for vapor or sublimation pressure: Closed cell (Static) method

FC(F)(F)C(F)(F)C(F)(C(F)(C(F)(F)F)C(F)(F)F)C(F)(C(F)(F)F)C(F)(F)F
Details	vapor or sublimation pressure [kPa]
364.58 K	35
368.2 K	40
373.47 K	48
378.29 K	56
388.47 K	77
398.2 K	103
408.48 K	137
418.26 K	176
428.22 K	226
438.31 K	286
448.23 K	357
458.16 K	438
468.16 K	536
478.24 K	649
488.03 K	778
498.02 K	928
503.12 K	1014
507.94 K	1104

FC(F)(F)C(F)(F)C(F)(C(F)(F)C(F)(F)F)C(F)(C(F)(F)F)C(F)(F)F [perfluoro-2-methyl-3-ethylpentane]
Details	Critical pressure [kPa]	Critical temperature [K]	vapor or sublimation pressure [kPa]
358.2 K	–	–	59
368.19 K	–	–	82
378.2 K	–	–	111
388.17 K	–	–	146
398.19 K	–	–	191
408.13 K	–	–	245
418.15 K	–	–	312
428.16 K	–	–	391
438.11 K	–	–	484
448.07 K	–	–	593
458.05 K	–	–	720
468 K	–	–	866
473 K	–	–	947
477.98 K	–	–	1034
482.95 K	–	–	1127
487.89 K	–	–	1225
492.92 K	–	–	1332
497.89 K	–	–	1447
502.9 K	–	–	1571
Direct measurement	1685	–	–
Visual observation in an unstirred cell	–	507.12	–
